Reference: US9458181B2, “Cathepsin cysteine protease inhibitors” (Merck Sharp & Dohme Corp., priority 2013, dated 2016)

Legend:
[1] = target: T1, human cathepsin F (Homo sapiens, UniProt Q9UBX1); test: Cathepsin F assay (hCat F); format: biochemical; conditions: human cathepsin F 10 nM, Z-Phe-Arg-AMC 8 μM, pH 5.5, 15 min preincubation; read-out: hCat F IP
T1 sequence (Q9UBX1 271-484): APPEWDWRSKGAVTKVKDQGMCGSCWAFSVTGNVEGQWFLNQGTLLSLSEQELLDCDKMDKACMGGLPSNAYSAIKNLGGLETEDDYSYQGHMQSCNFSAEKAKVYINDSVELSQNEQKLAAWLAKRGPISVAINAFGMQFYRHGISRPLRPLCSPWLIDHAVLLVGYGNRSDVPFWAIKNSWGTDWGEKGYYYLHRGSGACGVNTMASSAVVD
Outline: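 Fluorogenic read-out: cleavage of Z-Phe-Arg-AMC (8 μM in added buffer) was followed at Ex 360/Em 460 nm for 20 min, with dose-response fitting of percent inhibition. Before substrate addition, 10 nM human enzyme was incubated 15 min at room temperature with compounds (DMSO stocks 500–0.025 μM) in pH 5.5 MES/EDTA/DTT buffer containing 10% DMSO.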

[2] = target: human cathepsin K (UniProt P43236); test: Cathepsin K Assay (hrbCat K); format: biochemical; conditions: human cathepsin K 0.4 nM, Z-Leu-Arg-AMC 8 μM, pH 5.5, 15 min preincubation; read-out: hrbCat K IP
Outline: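 Human cathepsin K (0.4 nM) in pH 5.5 MES buffer with EDTA, DTT and 10% DMSO was preincubated 15 min at room temperature with compound from a ⅓ dilution series (500-0.025 μM DMSO stocks). Z-Leu-Arg-AMC (8 μM) was then added, and AMC release was followed fluorometrically (Ex 360/Em 460 nm) for 30 min; inhibition was fitted to a dose-response model.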

Structure (SMILES) | IC50 [1] [nM] | IC50 [2] [nM]
CS(=O)(=O)N1CCN(C(=O)c2ccc(-c3nc(-c4ccc(F)cc4F)oc3[C@@H]3CCCC[C@H]3C(=O)NC3(C#N)CC3)cc2)CC1 [Example 129, (1R,2R)-N-(1-cyanocyclopropyl)-2-(2-(2,4-difluorophenyl)-4-(4-(4-(mcthylsulfonyl)piperazine-1-carbonyl)phenyl)oxazol-5-yl)cyclohexanecarboxamide] | 3930 | 9.12
N#CC1(NC(=O)[C@@H]2CCCC[C@H]2c2oc(-c3cc(C(F)(F)F)ccn3)nc2-c2ccc(N3CCS(=O)(=O)CC3)cc2)CC1 [Example 83, (1R,2R)-N-(1-cyanocyclopropyl)-2-(4-(4-(1,1-dioxidothiomorpholino)phenyl)-2-(4-(trifluoromethyl)pyridin-2-yl)oxazol-5-yl)cyclohexanecarboxamide] | 4150 | 1.3
CCC(C#N)NC(=O)[C@@H]1CCCC[C@H]1c1oc(-c2ccc(F)cc2)nc1-c1ccc(N2CCS(=O)(=O)CC2)cc1 (single isomer, unassigned) [Example 125, (1R,2R)-N-((S or R)-1-cyanopropyl)-2-(4-(4-(1,1-dioxidothiomorpholino)phenyl)-2-(4-fluorophenyl)oxazol-5-yl)cyclohexanecarboxamide] | 104 | 0.69
N#CC1(NC(=O)[C@@H]2CCCC[C@H]2c2oc(-c3ccccn3)nc2-c2ccc(N3CCS(=O)(=O)CC3)cc2)CC1 [Example 28, (1R,2R)-N-(1-cyanocyclopropyl)-2-(4-(4-(1,1-dioxidothiomorpholino)phenyl)-2-(pyridin-2-yl)oxazol-5-yl)cyclohexanecarboxamide] | 1360 | 1.26
N#CC1(NC(=O)[C@@H]2CCCC[C@H]2c2oc(-c3ccc(C(F)(F)F)cn3)nc2-c2ccc(N3CCS(=O)(=O)CC3)cc2)CC1 [Example 81, (1R,2R)-N-(1-cyanocyclopropyl)-2-(4-(4-(1,1-dioxidothiomorpholino)phenyl)-2-(5-(trifluoromethyl)pyridin-2-yl)oxazol-5-yl)cyclohexanecarboxamide] | 3060 | 2.99
N#CC(NC(=O)[C@@H]1CCCC[C@H]1c1oc(-c2ccc(F)cc2)nc1-c1ccc(N2CCS(=O)(=O)CC2)cc1)C(F)(F)F (mixture of isomers) [Example 149, (1R,2R)-N-((S and R)-1-cyano-2,2,2-trifluoroethyl)-2-(4-(4-(1,1-dioxidothiomorpholino)phenyl)-2-(4-fluorophenyl)oxazol-5-yl)cyclohexanecarboxamide] | 53 | 1.3
N#CC1(NC(=O)[C@@H]2CCCC[C@H]2c2oc(C3(C(F)(F)F)CC3)nc2-c2ccc(N3CCS(=O)(=O)CC3)cc2)CC1 [Example 110, (1R,2R)-N-(1-cyanocyclopropyl)-2-(4-(4-(1,1-dioxidothiomorpholino)phenyl)-2-(1-(trifluoromethyl)cyclopropyl)oxazol-5-yl)cyclohexanecarboxamide] | 931 | 1.1
N#CC1(NC(=O)[C@@H]2CCCC[C@H]2c2oc(-c3cccnn3)nc2-c2ccc(N3CCS(=O)(=O)CC3)cc2)CC1 [Example 97, (1R,2R)-N-(1-cyanocyclopropyl)-2-(4-(4-(1,1-dioxidothiomorpholino)phenyl)-2-(pyridazin-3-yl)oxazol-5-yl)cyclohexanecarboxamide] | 2550 | 2.83
Cc1nc(-c2ccc(N3CCS(=O)(=O)CC3)cc2)c([C@@H]2CCC(F)(F)C[C@H]2C(=O)NC2(C#N)CC2)s1 [Example 59, (1R,2R)-N-(1-cyanocyclopropyl)-2-(4-(4-(1,1-dioxidothiomorpholino)phenyl)-2-methylthiazol-5-yl)-5,5-difluorocyclohexane-carboxamide] | 389 | 0.51
N#CC1(NC(=O)[C@@H]2CCCC[C@H]2c2oc(CC3CCCCC3)nc2-c2ccc(N3CCS(=O)(=O)CC3)cc2)CC1 [Example 51, (1R,2R)-N-(1-cyanocyclopropyl)-2-(2-(cyclohexylmethyl)-4-(4-(1,1-dioxidothiomorpholino)phenyl)oxazol-5-yl)cyclohcxanecarboxamide] | 400 | 1.69
N#CC1(NC(=O)[C@@H]2CCCC[C@H]2c2oc(C3C4CC3C4)nc2-c2ccc(N3CCS(=O)(=O)CC3)cc2)CC1 (stereo partly drawn) [Example 98, (1R,2R)-2-(2-(bicyclo[1.1.1]pentan-2-yl)-4-(4-(1,1-dioxidothiomorpholino)phenyl)oxazol-5-yl)-N-(1-cyanocyclopropyl) cyclohexanecarboxamide] | 2310 | 1.43
CC(C)C(C#N)NC(=O)[C@@H]1CCCC[C@H]1c1oc(-c2ccc(F)cc2)nc1-c1ccc(N2CCS(=O)(=O)CC2)cc1 (single isomer, unassigned) [Example 124, (1R,2R)-N-((R or S)-1-cyano-2-methylpropyl)-2-(4-(4-(1,1-dioxidothiomorpholino)phenyl)-2-(4-fluorophenyl)oxazol-5-yl)cyclohexanecarboxamide] | ≥ 10000 | 1080
N#CC1(NC(=O)[C@@H]2CCCC[C@H]2c2oc(-c3ncccc3C(F)(F)F)nc2-c2ccc(N3CCS(=O)(=O)CC3)cc2)CC1 [Example 80, (1R,2R)-N-(1-cyanocyclopropyl)-2-(4-(4-(1,1-dioxidothiomorpholino)phenyl)-2-(3-(trifluoromethyl)pyridin-2-yl)oxazol-5-yl)cyclohexanecarboxamide] | 1490 | 2.43
N#CC1(NC(=O)[C@@H]2CCCC[C@H]2c2oc(-c3cccc(C(F)(F)F)c3)nc2-c2ccc(N3CCS(=O)(=O)CC3)cc2)CC1 [Example 66, (1R,2R)-N-(1-cyanocyclopropyl)-2-(4-(4-(1,1-dioxidothiomorpholino)phenyl)-2-(3-(trifluoromethyl)phenyl)oxazol-5-yl)cyclohexanecarboxamide] | 454 | 1.21
CC(C)(O)C(C#N)NC(=O)[C@@H]1CCCC[C@H]1c1oc(-c2ccc(F)cc2)nc1-c1ccc(N2CCS(=O)(=O)CC2)cc1 (single isomer, unassigned) [Example 159, (1R,2R)-N-((S or R)-1-cyano-2-hydroxy-2-methylpropyl)-2-(4-(4-(1,1-dioxidothiomorpholino)phenyl)-2-(4-fluorophenyl)oxazol-5-yl)cyclohexanecarboxamide] | 6860 | 43.2
COc1ccccc1-c1nc(-c2ccc(N3CCS(=O)(=O)CC3)cc2)c([C@@H]2CCCC[C@H]2C(=O)NC2(C#N)CC2)o1 [Example 72, (1R,2R)-N-(1-cyanocyclopropyl)-2-(4-(4-(1,1-dioxidothiomorpholino)phenyl)-2-(2-methoxyphenyl)oxazol-5-yl)cyclohexanecarboxamide] | 750 | 1.49
COC(c1ccccc1)(c1nc(-c2ccc(N3CCS(=O)(=O)CC3)cc2)c([C@@H]2CCCC[C@H]2C(=O)NC2(C#N)CC2)o1)C(F)(F)F (mixture of isomers) [Example 116, (1R,2R)-N-(1-cyanocyclopropyl)-2-(4-(4-(1,1-dioxidothiomorpholino)phenyl)-2-((R and S)-2,2,2-trifluoro-1-methoxy-1-phenylethyl)oxazol-5-yl)cyclohexanecarboxamide] | 1210 | 1.38
CC(C)(C#N)NC(=O)[C@@H]1CCCC[C@H]1c1oc(-c2ccc(F)cc2F)nc1-c1ccc(N2CCS(=O)(=O)CC2)cc1 [Example 43, (1R,2R)-N-(2-cyanopropan-2-yl)-2-(2-(2,4-difluorophenyl)-4-(4-(1,1-dioxidothiomorpholino)phenyl)oxazol-5-yl)cyclohexanecarboxamide] | 1650 | 15.7
N#CC1(NC(=O)[C@@H]2CCCC[C@H]2c2oc(C(F)(F)c3ccccc3)nc2-c2ccc(N3CCS(=O)(=O)CC3)cc2)CC1 [Example 130, (1R,2R)-N-(1-cyanocyclopropyl)-2-(2-(difluoro(phenyl)methyl)-4-(4-(1,1-dioxidothiomorpholino)phenyl)oxazol-5-yl)cyclohexanecarboxamide] | 70 | 1.25
N#CCNC(=O)[C@@H]1CCCC[C@H]1c1oc(-c2ccc(F)cc2)nc1-c1ccc(N2CCS(=O)(=O)CC2)cc1 [Example 112, (1R,2R)-N-(cyanomethyl)-2-(4-(4-(1,1-dioxidothiomorpholino)phenyl)-2-(4-fluorophenyl)oxazol-5-yl)cyclohexanecarboxamide] | 126 | 0.73
N#CC1(NC(=O)[C@@H]2CCCC[C@H]2c2oc(-c3ccc(F)cc3)nc2-c2ccc(N3CC4CC3CS4(=O)=O)cc2)CC1 (mixture of isomers) [Example 87, (1R,2R)-N-(1-cyanocyclopropyl)-2-(4-(4-((1R,4R and 1S,4S)-2,2-dioxido-2-thia-5-azabicyclo[2.2.1]heptan-5-yl)phenyl)-2-(4-fluorophenyl)oxazol-5-yl)cyclohexanecarboxamide] | 1220 | 4.09
N#CC1(NC(=O)[C@@H]2CCCC[C@H]2c2oc(-c3ccc(OC(F)F)nc3)nc2-c2ccc(N3CCS(=O)(=O)CC3)cc2)CC1 [Example 91, (1R,2R)-N-(1-cyanocyclopropyl)-2-(2-(6-(difluoromethoxy)pyridin-3-yl)-4-(4-(1,1-dioxidothiomorpholino)phenyl)oxazol-5-yl)cyclohexanecarboxamide] | 1670 | 1.3
